Where two headings read alike, the source gives them in different places.
Tested on: edema in the hind paws (carrageenan)
Test: carrageenan-induced hind paw edema, oral administration
Type: in vivo, male Wistar rats
Conditions: Rattus norvegicus; for inhibition in vivo at 10 mg/kg: 10 mg/kg orally; for inhibition in vivo at 5 mg/kg: 5 mg/kg orally; for inhibition in vivo at 1 mg/kg: 1 mg/kg orally
Procedure: That is, male Wistar rats weighing about 100 g, one group consisting of 5 to 7 animals, were given orally the compounds according to the present invention and then edema was induced in the hind paws by subcutaneous injections of 0.1 ml of 1% carrageenan 1 hour after the administration of the test compounds, and the volumes of the hind paws were measured by a volume differential meter.

[1] = 1 hr, read-out: Inhibition (%) 1 hr
[2] = 2 hr, read-out: Inhibition (%) 2 hr
[3] = 3 hr, read-out: Inhibition (%) 3 hr
[4] = 4 hr, read-out: Inhibition (%) 4 hr
[5] = 5 hr, read-out: Inhibition (%) 5 hr
[6] = 6 hr, read-out: Inhibition (%) 6 hr

Compound	inhibition in vivo at 10 mg/kg [1]	inhibition in vivo at 10 mg/kg [2]	inhibition in vivo at 10 mg/kg [3]	inhibition in vivo at 10 mg/kg [4]	inhibition in vivo at 10 mg/kg [5]	inhibition in vivo at 10 mg/kg [6]	inhibition in vivo at 5 mg/kg [1]	inhibition in vivo at 5 mg/kg [2]	inhibition in vivo at 5 mg/kg [3]	inhibition in vivo at 5 mg/kg [4]	inhibition in vivo at 5 mg/kg [5]	inhibition in vivo at 5 mg/kg [6]	inhibition in vivo at 1 mg/kg [1]	inhibition in vivo at 1 mg/kg [2]	inhibition in vivo at 1 mg/kg [3]	inhibition in vivo at 1 mg/kg [4]	inhibition in vivo at 1 mg/kg [5]	inhibition in vivo at 1 mg/kg [6]
CC(C(=O)O)c1ccc2c(c1)C(=O)Cc1cccnc1S2 (centres unmarked) [Compound 20, 2-(5,6-dihydro-6-oxobenzo[b]pyrido[3,2-f]thiepin-8-yl)-propionic acid]	45%	54.3%	47.5%	33.8%	28.9%	24.3%												
CC(C(=O)O)c1ccc2c(c1)CCc1cccnc1S2 (centres unmarked) [Compound 21, 2-(5,6-dihydrobenzo[b]pyrido[3,2-f]thiepin-8-yl)-propionic acid]	69.5%	75.6%	69%	67%	70.3%	64.6%												
CCOC(=O)C(C)c1ccc2c(c1)CCc1cccnc1S2 (centres unmarked) [Compound 22, Ethyl 2-(5,6-dihydrobenzo[b]pyrido[3,2-f]thiepin-8-yl)-propionate]	29.6%	51.7%	59.1%	57%	45.9%	42.8%												
CC(C(N)=O)c1ccc2c(c1)CCc1cccnc1S2 (centres unmarked) [Compound 23, 2-(5,6-dihydrobenzo[b]pyrido[3,2-f]thiepin-8-yl)-propionamide]							22.6%	53.8%	60.9%	64.1%	51.8%	37.5%						
CC(C(=O)O)c1ccc2c(c1)Sc1ncccc1CC2 (centres unmarked) [Compound 24, 2-(5,6-dihydrobenzo[b]pyrido[3,2-f]thiepin-9yl)-propionic acid]	19.6%	52.1%	49.9%	38.3%	28.2%	27.2%												
CCOC(=O)C(C)c1ccc2c(c1)Sc1ncccc1CC2 (centres unmarked) [Compound 25, Ethyl 2-(5,6-dihydrobenzo[b]pyrido[3,2-f]thiepin-9-yl)-propionate]	42.8%	57.7%	61%	52.7%	33.4%	29.2%												
CC(C(=O)O)c1ccc2c(c1)C(=O)Cc1cccnc1O2 (centres unmarked) [Compound 26, 2-(5,6-dihydro-6-oxobenzo[b]pyrido[3,2-f]oxepin-8-yl)-propionic acid]							55.7%	52.6%	40%	32.2%	29.7%	24%						
CC(C(=O)O)c1ccc2c(c1)CCc1cccnc1O2 (centres unmarked) [Compound 27, 2-(5,6-dihydrobenzo[b]pyrido[3,2-f]oxepin-8yl)-propionic acid]							68%	83.5%	79%	81%	70.6%	61.5%						
CCOC(=O)C(C)c1ccc2c(c1)CCc1cccnc1O2 (centres unmarked) [Compound 28]							11.7%	35.1%	50.9%	55.4%	47.1%	37.7%						
CC(C(N)=O)c1ccc2c(c1)CCc1cccnc1O2 (centres unmarked) [Compound 29, 2-(5,6-dihydrobenzo[b]pyrido[3,2-f]oxepin-8-yl)-propionamide]							18.1%	38.3%	53.5%	53.8%	46.2%	42.9%						
CC(C(N)=O)c1ccc2c(c1)CCc1ccccc1S2 (centres unmarked) [Compound 30, 2-(10,11-dihydrodibenzo[b,f]thiepin-2-yl)-propionamide]							21.4%	56.4%	59%	52.8%	38.6%	27.3%						
O=C(O)c1ccccc1Nc1cccc(C(F)(F)F)c1 [Flufenamic acid, reference compound]	-2.9%	23.9%	26.8%	29.5%	23.8%	15.4%	6.8%	25.9%	26.2%	25.3%	16%	10.6%						
COc1ccc2c(c1)c(CC(=O)O)c(C)n2C(=O)c1ccc(Cl)cc1 [Indomethacin, reference compound]	64.4%	59.8%	52.1%	63.8%	54.4%	50.3%	38.3%	51.7%	59.2%	58.4%	48.7%	41%	21.6%	39.6%	29.9%	36.4%	28.9%	28.7%
CCCCC1C(=O)N(c2ccccc2)N(c2ccccc2)C1=O [Phenyl butazone, reference compound]	12.4%	23.7%	27.4%	20%	14.4%	8.6%		22.7%	21.1%	22.2%	13.1%	13.6%						
